Data from ChEMBL document CHEMBL5096221, “Discovery of a Highly Potent and Orally Bioavailable STAT3 Dual Phosphorylation Inhibitor for Pancreatic Cancer Treatment” (J Med Chem, 2022).
Activity calls are given as the source filed them. The calls are words filed in the database; no cut-off is given here.

Columns and labels:
[1] = target: Tyrosine-protein kinase JAK2 (Homo sapiens, UniProt O60674); assay: Inhibition of JAK2 (unknown origin)
[2] = Toxicity in BALB/c mouse xenografted with human BXPC-3 cells assessed as effect on liver at 10 mg/kg,po administrated once daily for 8 weeks by H and E staining based microscopic analysis; assay type: organism-based; details: in vivo, 1344 h
[3] = Half life in BALB/c mouse at 1 mg/kg,iv measured upto 24 hrs by LC-MS/MS analysis; assay type: ADME, organism-based; details: in vivo
[4] = target: T1, Signal transducer and activator of transcription 3 (Homo sapiens, UniProt P40763); assay: Inhibition of STAT3 in human BXPC-3 cells assessed as inhibition of IL-6 stimulated STAT3 phosphorylation at Tyr 705 at 1 to 30 nM by western blot assay; assay type: cell-based; details: dose 1-30 nM, DDE = dose-dependent effect
[5] = AUC (0-infinity) in BALB/c mouse at 10 mg/kg,po measured upto 24 hrs by LC-MS/MS analysis; assay type: ADME, organism-based; parameters: time < 24 hrs, dose 10 mg/kg, route po; details: in vivo
Mus musculus = assay: In vivo inhibition of STAT3 in BALB/c mouse xenografted with human BXPC-3 cells assessed as inhibition of STAT3 phosphorylation at Tyr 705 at 10 mg/kg,po administrated once daily for 8 weeks by immunohistochemical analysis; assay type: functional, organism-based
[6] = target: T1, Signal transducer and activator of transcription 3; assay: Inhibition of STAT3 in human BXPC-3 cells assessed as reduction of c-Myc expression at 1 to 30 nM incubated for 22 to 24 hrs by western blot analysis; assay type: cell-based; details: dose 1-30 nM, time 22-24 hrs, DDE = dose-dependent effect
PC-3 [7] = assay: Anti-proliferative activity against human PC-3 cells assessed as cell growth inhibition incubated for 72 hrs by MTS assay; assay type: functional, cell-based; details: PC-3, 72 h
BXPC-3 [8] = assay: Inhibition of colony formation in human BXPC-3 cells at 3 to 10 nM incubated for 5 to 7 days by crystal violet staining assay; assay type: functional, cell-based; details: dose 3-10 nM, time 5-7 day, DDE = dose-dependent effect
[9] = target: T1, Signal transducer and activator of transcription 3; assay: Inhibition of STAT3 in human Capan-2 cells assessed as inhibition of STAT3 phosphorylation at Tyr 705 at 10 nM incubated for 22 to 24 hrs by western blot analysis; assay type: cell-based; details: time 22-24 hrs
[10] = Clearance at steady state in BALB/c mouse at 1 mg/kg,iv measured upto 24 hrs by LC-MS/MS analysis; assay type: ADME, organism-based; details: BALB/c, in vivo
Cytochrome P450 2C9 = Cytochrome P450 2C9 (Homo sapiens, UniProt P11712); assay: Inhibition of CYP2C9 in human liver microsomes using tolbutamide as substrate incubated for 60 mins in presence of NADPH by HPLC analysis; assay type: ADME, Microsome
[11] = target: T1, Signal transducer and activator of transcription 3; assay: Inhibition of STAT3 in human BXPC-3 cells assessed as inhibition of IL-6 stimulated nuclear STAT3 phosphorylation at Tyr 705 at 1 to 30 nM by western blot assay; assay type: cell-based; details: dose 1-30 nM
[12] = Half life in BALB/c mouse at 10 mg/kg,po measured upto 24 hrs by LC-MS/MS analysis; assay type: ADME, organism-based; details: in vivo
[13] = target: T1, Signal transducer and activator of transcription 3; assay: Inhibition of STAT3 in human BXPC-3 cells assessed as inhibition of STAT3 phosphorylation at Ser 727 at 1 to 30 nM incubated for 22 to 24 hrs by western blot analysis; assay type: cell-based; details: dose 1-30 nM, time 22-24 hrs, DDE = dose-dependent effect
[14] = Toxicity in BALB/c mouse xenografted with human BXPC-3 cells assessed as effect on lung at 30 mg/kg,po administrated once daily for 8 weeks by H and E staining based microscopic analysis; assay type: organism-based; details: in vivo, 1344 h
[15] = target: T1, Signal transducer and activator of transcription 3; assay: Inhibition of STAT3 in human Capan-2 cells assessed as inhibition of STAT3 phosphorylation at Ser 727 at 1 to 30 nM incubated for 22 to 24 hrs by western blot analysis; assay type: cell-based; details: dose 1-30 nM, time 22-24 hrs, DDE = dose-dependent effect
[16] = Microsomal stability in rat liver microsomes assessed as intrinsic clearance incubated upto 40 mins in presence of NADPH by LC-MS/MS analysis; assay type: ADME, Microsome; details: read-out: CLH
[17] = target: T1, Signal transducer and activator of transcription 3; assay: Inhibition of STAT3 in human BXPC-3 cells assessed as inhibition of STAT3 phosphorylation at Tyr 705 at 30 nM incubated for 4 to 24 hrs by western blot analysis; assay type: cell-based; details: time 4-24 hrs, TDE = time-dependent effect
[18] = target: T2, Mitogen-activated protein kinase 13 (Homo sapiens, UniProt O15264); assay: Inhibition of p38delta (unknown origin)
T2 sequence (O15264 whole entry): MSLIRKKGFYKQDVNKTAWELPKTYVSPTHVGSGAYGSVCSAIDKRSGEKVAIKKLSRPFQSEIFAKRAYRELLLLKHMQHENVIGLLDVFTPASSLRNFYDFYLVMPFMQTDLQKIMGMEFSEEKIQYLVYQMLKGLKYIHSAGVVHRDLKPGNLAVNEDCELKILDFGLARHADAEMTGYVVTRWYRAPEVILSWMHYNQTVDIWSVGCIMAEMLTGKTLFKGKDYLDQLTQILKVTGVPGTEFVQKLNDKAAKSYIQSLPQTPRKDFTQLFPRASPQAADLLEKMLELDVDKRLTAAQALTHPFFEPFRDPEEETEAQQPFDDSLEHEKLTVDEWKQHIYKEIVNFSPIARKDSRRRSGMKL

[19] = target: T1, Signal transducer and activator of transcription 3; assay: Binding affinity to human recombinant STAT3 expressed in Escherichia coli BL21 by MST assay
[20] = target: T1, Signal transducer and activator of transcription 3; assay: Inhibition of STAT3 in human BXPC-3 cells assessed as inhibition of IL-6 stimulated STAT3 nuclear translocation by immunofluorescent assay; assay type: cell-based
[21] = target: Proto-oncogene tyrosine-protein kinase Src (Homo sapiens, UniProt P12931); assay: Inhibition of SRC (unknown origin)
PC-3 [22] = assay: Inhibition of colony formation in human PC-3 cells at 1000 nM incubated for 5 to 7 days by crystal violet staining assay; assay type: functional, cell-based; details: time 5-7 day
BXPC-3 [23] = assay: Inhibition of mitochondrial respiration in human BXPC-3 cells assessed as reduction in maximal respiration rate at 1 to 30 nM incubated for 1 hr by seahorse XF96 flux analyzer; assay type: functional, cell-based; details: dose 1-30 nM, DDE = dose-dependent effect
BXPC-3 [24] = assay: Inhibition of mitochondrial respiration in human BXPC-3 cells assessed as reduction in oxygen consumption rate at 1 to 30 nM incubated for 1 hr by seahorse XF96 flux analyzer; assay type: functional, cell-based; details: dose 1-30 nM, DDE = dose-dependent effect
[25] = target: Mitogen-activated protein kinase 3 (Homo sapiens, UniProt P27361); assay: Inhibition of ERK1 (unknown origin)
[26] = Microsomal stability in rat liver microsomes assessed as half life incubated upto 40 mins in presence of NADPH by LC-MS/MS analysis; assay type: ADME, Microsome
[27] = target: T1, Signal transducer and activator of transcription 3; assay: Inhibition of STAT3 in human Capan-2 cells assessed as inhibition of STAT3 phosphorylation at Tyr 705 at 30 nM incubated for 4 to 24 hrs by western blot analysis; assay type: cell-based; details: time 4-24 hrs, TDE = time-dependent effect
[28] = Volume of distribution at steady state in BALB/c mouse at 1 mg/kg,iv measured upto 24 hrs by LC-MS/MS analysis; assay type: ADME, organism-based; details: BALB/c, in vivo, read-out: Vdss
[29] = target: T1, Signal transducer and activator of transcription 3; assay: Inhibition of STAT3 in human BXPC-3 cells assessed as inhibition of IL-6 stimulated cytoplasmic STAT3 phosphorylation at Tyr 705 at 1 to 30 nM by western blot assay; assay type: cell-based; details: dose 1-30 nM
[30] = MRT (0 to last) in BALB/c mouse at 1 mg/kg,iv measured upto 24 hrs by LC-MS/MS analysis; assay type: ADME, organism-based; details: BALB/c, in vivo

T1 sequence (P40763 whole entry): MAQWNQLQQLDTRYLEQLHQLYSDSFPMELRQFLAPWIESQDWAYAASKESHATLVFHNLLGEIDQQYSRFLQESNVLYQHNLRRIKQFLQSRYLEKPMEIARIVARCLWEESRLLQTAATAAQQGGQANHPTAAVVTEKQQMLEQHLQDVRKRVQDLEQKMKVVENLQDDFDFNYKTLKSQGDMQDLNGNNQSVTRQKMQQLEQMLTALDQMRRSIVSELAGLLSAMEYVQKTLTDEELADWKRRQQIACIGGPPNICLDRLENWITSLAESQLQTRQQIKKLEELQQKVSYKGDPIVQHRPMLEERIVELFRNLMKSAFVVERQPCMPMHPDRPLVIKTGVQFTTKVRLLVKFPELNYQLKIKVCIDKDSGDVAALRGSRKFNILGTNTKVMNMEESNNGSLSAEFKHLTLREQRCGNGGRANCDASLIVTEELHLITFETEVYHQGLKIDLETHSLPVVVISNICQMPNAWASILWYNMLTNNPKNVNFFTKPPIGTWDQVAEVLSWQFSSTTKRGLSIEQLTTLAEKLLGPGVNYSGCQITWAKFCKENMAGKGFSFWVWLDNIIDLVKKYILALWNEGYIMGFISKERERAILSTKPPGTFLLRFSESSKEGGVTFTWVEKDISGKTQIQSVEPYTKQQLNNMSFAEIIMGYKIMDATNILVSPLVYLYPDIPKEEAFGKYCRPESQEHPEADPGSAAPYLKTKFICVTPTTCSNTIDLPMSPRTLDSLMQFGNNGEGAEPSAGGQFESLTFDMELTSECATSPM
Sequence of Mitogen-activated protein kinase 3 (P27361 whole entry): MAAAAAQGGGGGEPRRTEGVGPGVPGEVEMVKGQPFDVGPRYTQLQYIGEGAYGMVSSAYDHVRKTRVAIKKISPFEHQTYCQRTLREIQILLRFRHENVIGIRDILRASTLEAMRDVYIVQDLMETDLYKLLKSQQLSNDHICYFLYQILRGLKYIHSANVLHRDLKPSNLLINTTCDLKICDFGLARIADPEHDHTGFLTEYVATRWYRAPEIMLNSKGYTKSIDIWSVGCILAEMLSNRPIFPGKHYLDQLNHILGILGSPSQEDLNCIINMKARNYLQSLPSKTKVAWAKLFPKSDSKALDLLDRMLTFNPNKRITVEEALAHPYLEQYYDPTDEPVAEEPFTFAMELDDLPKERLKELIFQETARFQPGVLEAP
Sequence of Cytochrome P450 2C9 (P11712 whole entry): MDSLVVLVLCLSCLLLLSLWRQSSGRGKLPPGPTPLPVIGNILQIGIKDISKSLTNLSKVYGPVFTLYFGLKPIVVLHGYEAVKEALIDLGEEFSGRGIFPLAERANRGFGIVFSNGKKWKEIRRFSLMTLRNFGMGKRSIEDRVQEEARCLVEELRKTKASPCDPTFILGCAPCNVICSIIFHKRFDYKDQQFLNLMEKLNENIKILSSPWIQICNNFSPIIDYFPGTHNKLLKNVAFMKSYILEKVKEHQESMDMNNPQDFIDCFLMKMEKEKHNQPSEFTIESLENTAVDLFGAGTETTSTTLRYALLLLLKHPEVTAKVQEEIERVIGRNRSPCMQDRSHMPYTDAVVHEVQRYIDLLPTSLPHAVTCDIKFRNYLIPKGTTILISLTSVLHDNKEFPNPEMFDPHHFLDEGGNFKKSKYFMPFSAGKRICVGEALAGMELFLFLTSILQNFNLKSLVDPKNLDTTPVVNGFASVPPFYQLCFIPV
Sequence of Tyrosine-protein kinase JAK2 (O60674 whole entry): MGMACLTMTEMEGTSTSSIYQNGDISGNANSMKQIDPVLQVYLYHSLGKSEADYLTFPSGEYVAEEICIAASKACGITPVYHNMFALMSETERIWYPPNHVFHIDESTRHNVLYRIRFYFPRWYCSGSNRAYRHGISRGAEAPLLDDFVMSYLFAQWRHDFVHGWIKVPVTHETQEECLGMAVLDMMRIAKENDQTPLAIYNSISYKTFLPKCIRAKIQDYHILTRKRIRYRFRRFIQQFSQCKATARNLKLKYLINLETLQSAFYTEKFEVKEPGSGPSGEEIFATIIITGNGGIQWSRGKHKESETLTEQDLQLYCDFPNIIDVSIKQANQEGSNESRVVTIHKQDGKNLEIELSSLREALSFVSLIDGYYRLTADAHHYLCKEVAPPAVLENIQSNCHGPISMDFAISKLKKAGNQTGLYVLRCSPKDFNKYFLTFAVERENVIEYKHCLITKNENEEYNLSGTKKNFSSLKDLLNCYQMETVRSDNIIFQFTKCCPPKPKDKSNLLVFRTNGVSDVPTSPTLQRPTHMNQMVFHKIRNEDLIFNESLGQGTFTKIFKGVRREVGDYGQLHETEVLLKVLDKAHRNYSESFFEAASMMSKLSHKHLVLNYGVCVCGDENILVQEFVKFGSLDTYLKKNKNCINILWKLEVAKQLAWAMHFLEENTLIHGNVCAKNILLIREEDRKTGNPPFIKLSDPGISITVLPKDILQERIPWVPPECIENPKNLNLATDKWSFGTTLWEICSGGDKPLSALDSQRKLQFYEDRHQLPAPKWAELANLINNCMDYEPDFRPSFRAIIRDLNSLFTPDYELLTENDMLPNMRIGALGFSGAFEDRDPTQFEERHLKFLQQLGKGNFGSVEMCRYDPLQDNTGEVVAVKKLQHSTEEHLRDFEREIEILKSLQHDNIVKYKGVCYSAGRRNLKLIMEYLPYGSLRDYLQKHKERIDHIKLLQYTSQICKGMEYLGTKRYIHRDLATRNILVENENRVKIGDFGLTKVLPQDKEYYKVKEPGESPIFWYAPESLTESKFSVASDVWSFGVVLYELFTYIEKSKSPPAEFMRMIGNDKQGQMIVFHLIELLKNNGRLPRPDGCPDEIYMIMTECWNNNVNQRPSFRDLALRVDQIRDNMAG
Sequence of Proto-oncogene tyrosine-protein kinase Src (P12931 2-536 limits assumed): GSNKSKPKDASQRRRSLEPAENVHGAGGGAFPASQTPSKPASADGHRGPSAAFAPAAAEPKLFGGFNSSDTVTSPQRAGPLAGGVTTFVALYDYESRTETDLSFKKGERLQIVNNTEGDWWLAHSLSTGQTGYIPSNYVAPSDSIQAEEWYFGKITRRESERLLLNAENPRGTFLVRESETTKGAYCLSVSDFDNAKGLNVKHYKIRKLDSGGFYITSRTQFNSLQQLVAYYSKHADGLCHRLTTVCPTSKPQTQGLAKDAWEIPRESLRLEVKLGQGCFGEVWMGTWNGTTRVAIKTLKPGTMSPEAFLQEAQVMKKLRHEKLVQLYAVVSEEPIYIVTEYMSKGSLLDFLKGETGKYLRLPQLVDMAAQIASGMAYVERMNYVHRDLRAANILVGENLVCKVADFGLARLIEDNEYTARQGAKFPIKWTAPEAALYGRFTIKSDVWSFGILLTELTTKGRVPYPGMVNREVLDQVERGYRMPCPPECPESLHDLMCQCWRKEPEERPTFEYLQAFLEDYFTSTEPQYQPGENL

Structure (SMILES): COc1ccc(-c2noc(-c3cnc(Oc4ccc5cc(C(=O)N6CCN(Cc7ccc(OCC(F)(F)F)cc7)CC6)n(C)c5c4)cn3)n2)cc1
- IC50 [1]: > 10 µM
- Activity [2]: Non-Toxic
- half-life [3]: 10.2 h
- inhibition [4]: Dde
- AUC(0-inf) [5]: 34900 ng·h/mL
- inhibition (Mus musculus): Active
- inhibition [6]: Dde
- IC50 (PC-3 [7]): > 1 µM
- inhibition (BXPC-3 [8]): Dde
- inhibition [9]: Active
- clearance [10]: 1.43 mL/min/kg
- IC50 (Cytochrome P450 2C9): > 50 µM
- inhibition [11]: Active
- half-life [12]: 9.4 h
- inhibition [13]: Dde
- Activity [14]: Non-Toxic
- inhibition [15]: Dde
- microsomal CLint [16]: 16.9 µL/min/mg
- inhibition [17]: Tde
- IC50 [18]: > 10 µM
- Kd [19]: 0.0213 µM
- inhibition [20]: Active
- IC50 [21]: > 10 µM
- inhibition (PC-3 [22]): Active
- inhibition (BXPC-3 [23]): Dde
- inhibition (BXPC-3 [24]): Dde
- IC50 [25]: > 10 µM
- half-life [26]: 1.37 h
- inhibition [27]: Tde
- Vd [28]: 1.27 L/kg
- inhibition [29]: Active
- MRT last at 24 h [30]: 8.1 h
